For 35 molecules, EC50 results are on record in patent US10034886B2, “GLP-1 receptor modulators” (Celgene International II SÀRL, priority 2014, dated 2018).

Read-outs that look alike come from different tables or passages of the source. Where only a bound is given, the exact number is not on record here.

For the experiment, the target named is T1, GLP-1R (Homo sapiens, UniProt P43220).
T1 construct: host or cells: GLP-1R CRE-bla CHO-K1 cells
As to the kind of experiment: EC20 GLP-1(9-36) PAM cAMP assay: dose response of compound in the presence of fixed concentration of GLP-1(9-36). In kind it is cell-based. Particulars: GLP-1R CRE-bla CHO-K1 cells, read-out: EC20 GLP-1(9-36) PAM EC50. The method, then: EC20 GLP-1(9-36) PAM cAMP Assay: Dose Response of Compound in the Presence of Fixed Concentration of GLP-1 (9-36).
GLP-1R CRE-bla CHO-K1 cells cultured in growth medium (DMEM-High glucose, 10% dialyzed FBS, 0.1 mM NEAA, 25 mM Hepes, 100 U/mL penicillin/100 μg/mL streptomycin, 5 μg/mL Blasticidin, 600 μg/mL Hygromycin) were trypsinized and plated in suspension into 384 well white flat bottom plates at 5000 cells/well in 12 μL assay buffer (Hanks Balanced Salt solution, 10 mM hepes, 0.1% BSA, pH 7.4). A 5× compound dose response curve (12-point) was generated in assay buffer containing 1.5 mM IBMX, 4% DMSO. GLP-1(9-36) was diluted to 4.2 μM in assay buffer containing 1.5 mM IMBX and 4% DMSO. The 5× compound dose response was added (3 μL), followed by 0.5 μL of GLP-1(9-36) and cells were incubated for 30 min at 37° C. Direct detection of cAMP was carried out using DiscoveRx HitHunter cAMP kit according to manufacturer's instructions and luminescence was read using a SpectraMax M5 plate reader. Luminescence was converted to total cAMP using a cAMP standard curve and data was analyzed by non-linear regression to determine the EC50 and Emax.
GLP-1(7-36): […]-NH2 (SEQ ID NO: 2). GLP-1(9-36): […]-NH2 (SEQ ID NO: 3). GLP-1(7-36) was purchased from GenScript. GLP-1(9-36) was purchased from Biopeptide Co., Inc.
The EC20GLP-1(9-36) PAM Activity range is denoted as follows: + denotes activity <0.8 μM, ++ denotes activity between 0.8 and 2.5 μM, +++ denotes activity between 2.5 and 5 μM, and ++++ denotes activity 5 to 10 μM.
On the technique in general: Cyclic AMP is a second messenger, typically raised through Gs and lowered through Gi signalling.

Where [1] appears, read: dose response of compound in presence of fixed concentration of GLP-1(9-36).
[2] abbreviates: compound dose response with fixed concentration of GLP-1(9-36).

T1 sequence (P43220 24-463): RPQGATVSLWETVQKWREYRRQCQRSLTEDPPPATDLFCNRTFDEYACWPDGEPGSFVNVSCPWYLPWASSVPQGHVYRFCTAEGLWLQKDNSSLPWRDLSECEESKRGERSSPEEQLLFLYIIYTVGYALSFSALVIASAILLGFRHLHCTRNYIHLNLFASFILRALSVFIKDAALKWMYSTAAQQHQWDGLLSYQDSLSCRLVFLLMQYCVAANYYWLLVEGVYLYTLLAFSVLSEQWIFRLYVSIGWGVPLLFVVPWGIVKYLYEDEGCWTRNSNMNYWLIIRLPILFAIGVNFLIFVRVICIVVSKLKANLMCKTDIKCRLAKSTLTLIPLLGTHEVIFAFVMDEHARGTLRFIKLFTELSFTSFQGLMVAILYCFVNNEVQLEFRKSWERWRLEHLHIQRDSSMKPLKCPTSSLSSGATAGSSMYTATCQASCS
T1 sequence (P01275 100-127 partner limits assumed): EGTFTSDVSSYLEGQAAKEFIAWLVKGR

Usually EC50 stands for the concentration that produces a half-maximal response. For `CCCCCCCOc1ccc(-c2cnc(-c3ccc(C[C@H](NC(=O)c4ccc(C(C)(C)C)s4)C(=O)NC(CCCC(=O)O)C(=O)O)cc3)nc2)cc1` (some centres unmarked) [Compound 633], the EC50 under setting [1] is 800 to 2500 nM.
Regarding `CCCCCCCCOc1ccc(-c2cnc(-c3ccc(C[C@H](NC(=O)c4ccc(C(C)(C)C)s4)C(=O)N4CC[C@H](C(=O)O)C4)cc3)nc2)cc1` [Compound 764], under setting [1], the 50% effective concentration (EC50) is below 800 nM.
With `CCCCCCCOc1ccc(-c2cnc(-c3ccc(C[C@H](NC(=O)c4ccc(C(C)(C)C)s4)C(=O)N4CCC[C@H]4C(=O)N4CC[C@@H](C(=O)O)C4)cc3)nc2)cc1` [Compound 500], the EC50 under setting [1] fell in the range of 800 to 2500 nM.
With `CCc1ccc(-c2ccc(-c3cnc(-c4ccc(C[C@H](NC(=O)c5ccc(C(C)(C)C)s5)C(=O)N[C@H](C)C(=O)O)cc4)nc3)c(F)c2)cc1` [Compound 1173], the EC50 under setting [1] was below 800 nM.
The same measure, in the same setting: for `CCCCCCCOc1ccc(-c2cnc(-c3ccc(C[C@H](NC(=O)c4ccc(C(C)(C)C)s4)C(=O)N4CC(C)C(C(=O)O)C4)cc3)nc2)cc1` (some centres unmarked) [Compound 631] the value was 800 to 2500 nM; for `CCCCCCCOc1ccc(-c2cnc(-c3ccc(C[C@@H](NC(=O)c4ccc(C(C)(C)C)cc4)C(=O)NCC(=O)O)cc3)nc2)cc1` [Compound 380], 800 to 2500 nM.
Turning to `C[C@@H](NC(=O)[C@H](Cc1ccc(-c2ncc(/C=C/CCCCc3ccccc3)cn2)cc1)NC(=O)c1ccc(C(C)(C)C)s1)C(=O)O` [Compound 1253], under setting [2], the half-maximal effective concentration (EC50) is below 800 nM.
Regarding `C[C@@H](NC(=O)[C@H](Cc1ccc(-c2ncc(-c3ccc(OC(F)(F)F)c(OCC4CC4)c3)cn2)cc1)NC(=O)c1ccc(C(C)(C)C)s1)C(=O)O` [Compound 1027], the EC50 under setting [1] lay in the range of 5000 to 10000 nM.
Still for that read-out and setting: then `COc1ccc(-c2cnc(-c3ccc(C[C@H](NC(=O)c4ccc(C(C)(C)C)s4)C(=O)N[C@H](C)C(=O)O)cc3)nc2)c(F)c1OC1CCCC1` [Compound 1019], with 2500 to 5000 nM; and `CCCCCCCOc1ccc(-c2cnc(-c3ccc(C[C@H](NC(=O)c4ccc(C(C)(C)C)s4)C(=O)N[C@@H](CC(=O)NCCO)C(=O)O)cc3)nc2)cc1` [Compound 521], with below 800 nM.
Consider `Cc1ccc(-c2ccc(-c3cnc(-c4ccc(C[C@H](NC(=O)c5ccc(C(C)(C)C)s5)C(=O)N[C@H](C)C(=O)O)cc4)nc3)cc2)c(F)c1` [Compound 1148], for which the EC50 under setting [1] was below 800 nM.
As to `CCCCCCCOc1ccc(-c2cnc(-c3ccc(C[C@H](NC(=O)c4ccn(C(C)(C)C)c4)C(=O)N4CC[C@H](C(=O)O)C4)cc3)nc2)cc1` [Compound 1094], the 50% effective concentration (EC50) under setting [1] was below 800 nM.
Turning to `CCCCCCCOc1ccc(-c2cnc(-c3ccc(C[C@H](NC(=O)c4ccc(CC)s4)C(=O)N4CC(C(=O)O)C4)cc3)nc2)cc1` [Compound 1110], the EC50 under setting [1] is 800 to 2500 nM.
Turning to `CCCCCCCOc1ccc(-c2cnc(-c3ccc(C[C@H](NC(=O)c4ccc(C(C)C)s4)C(=O)NC(C(=O)O)C(O)c4ccccc4)cc3)nc2)cc1` (some centres unmarked) [Compound 958], the EC50 under setting [1] was 800 to 2500 nM.
`CCCCCCCOc1ccc(-c2cnc(-c3ccc(C[C@H](NC(=O)c4ccc(CC)s4)C(=O)N4CC[C@H](C(=O)O)C4)cc3)nc2)cc1` [Compound 863]: the 50% effective concentration (EC50) under setting [1] lay within 800 to 2500 nM.
For the molecule `C[C@@H](NC(=O)[C@H](Cc1ccc(-c2ncc(-c3ccc(Oc4ccccc4F)nc3)cn2)cc1)NC(=O)c1ccc(C(C)(C)C)s1)C(=O)O` [Compound 1009], the EC50 under setting [1] lay within 2500 to 5000 nM.
As to `CCCCCCCOc1ccc2nc(-c3ccc(C[C@H](NC(=O)c4ccc(C(C)(C)C)cc4)C(=O)N4CC[C@H](C(=O)O)C4)cc3)ccc2c1` [Compound 807], the EC50 under setting [1] lay in the range of 5000 to 10000 nM.
Turning to `CCC[C@H]1CC[C@H](C2CCN(c3cnc(-c4ccc(C[C@H](NC(=O)c5ccc(OC(C)C)cc5)C(=O)N5CC(C(=O)O)C5)cc4)nc3)CC2)CC1` [Compound 1535], the EC50 under setting [2] fell in the range of 800 to 2500 nM.
Take `CC(C)(C)c1ccc(C(=O)N[C@@H](Cc2ccc(-c3ncc(-c4ccc(OCC(F)(F)F)cc4)cn3)cc2)C(=O)NCCC(=O)O)cc1` [Compound 682]: the concentration giving a half-maximal response (EC50) under setting [1] was 2500 to 5000 nM.
With `Cc1ccc(/C=C/c2cnc(-c3ccc(C[C@H](NC(=O)c4ccc(C(C)(C)C)s4)C(=O)N[C@H](C)C(=O)O)cc3)nc2)cc1` [Compound 1264], the EC50 under setting [2] was in the range of 800 to 2500 nM.
As to `CCCCCCCOc1ccc(-c2cnc(-c3ccc(C[C@H](NC(=O)c4cnc(C(C)(C)C)nc4)C(=O)NC(C(=O)O)C(O)c4ccccc4)cc3)nc2)cc1` (some centres unmarked) [Compound 953], the EC50 under setting [1] was 800 to 2500 nM.
`COc1ccc(-c2cnc(-c3ccc(C[C@H](NC(=O)c4ccc(C(C)(C)C)s4)C(=O)N[C@H](C)C(=O)O)cc3)nc2)cc1` [Compound 730]: the EC50 under setting [1] is 2500 to 5000 nM.
Regarding `CCCCCCCOc1ccc(-c2cnc(-c3ccc(C[C@H](NC(=O)c4ccc(C(C)(C)C)cc4)C(=O)NC(C(=O)O)c4nc(C)oc4C)cc3)nc2)cc1` (some centres unmarked) [Compound 536], under setting [1], the EC50 is 800 to 2500 nM.
The same measure, in the same setting: for `CCCCCCc1ccc(-c2cnc(-c3ccc(C[C@H](NC(=O)c4ccc(C(C)(C)C)cc4)C(=O)NCCC(=O)O)cc3)nc2)cc1` [Compound 678] the value was 800 to 2500 nM.
Turning to `CCCCCCCOc1ccc(-c2cnc(-c3ccc(C[C@H](NC(=O)c4ccc(C(C)(C)C)s4)C(=O)N4CC(C(=O)O)CCC4C)cc3)nc2)cc1` (some centres unmarked) [Compound 653], the EC50 under setting [1] is below 800 nM.
For `CCCCCCOc1ccc(-c2cnc(-c3ccc(C[C@H](NC(=O)c4ccc(C(C)(C)C)s4)C(=O)N[C@H](C)C(=O)O)cc3)nc2)cc1` [Compound 735], the EC50 under setting [1] lay in the range of 800 to 2500 nM.
Regarding `CC(C)(C)c1ccc(C(=O)N[C@@H](Cc2ccc(-c3ncc(N4CCC(c5ccccc5Cl)CC4)cn3)cc2)C(=O)N2CC(C(=O)O)C2)s1` [Compound 1480], the EC50 under setting [2] was in the range of 800 to 2500 nM.
As for `CCCCCCCOc1ccc(-c2cnc(-c3ccc(C[C@H](NC(=O)c4ccc(C(C)(C)C)cc4)C(=O)N[C@H](C)C(=O)O)cc3)nc2)cc1` [Compound 398, (R)-2-((S)-2-(4-(tert-butyl)benzamido)-3-(4-(5-(4-(heptyloxy)phenyl)pyrimidin-2-yl)phenyl)propanamido)propanoic acid], the EC50 under setting [1] was below 800 nM.
For the molecule `CCCCCCCOc1ccc(-c2cnc(-c3ccc(C[C@H](NC(=O)c4ccc(C(C)(C)C)cc4)C(=O)NCCC(=O)O)cc3)nc2)cc1C` [Compound 698], the EC50 under setting [1] is below 800 nM.
For the molecule `CCCCOc1ccc(-c2ccc(-c3cnc(-c4ccc(C[C@H](NC(=O)c5ccc(C(C)(C)C)s5)C(=O)N5CC(C(=O)O)C5)cc4)nc3)c(F)c2)cc1` [Compound 1332], the EC50 under setting [2] was below 800 nM.
On to `CCCc1ccc(CC2CN(c3cnc(-c4ccc(CC(NC(=O)c5ccc(C(C)(C)C)s5)C(=O)N5CC(C(=O)O)C5)cc4)nc3)C2)cc1` (centres unmarked) [Compound 1509], for which the EC50 under setting [2] was 5000 to 10000 nM.
Turning to `CCC[C@H]1CC[C@H](C2CCN(c3cnc(-c4ccc(C[C@H](NC(=O)c5ccc(C(C)(C)C)s5)C(=O)N5CC[C@H](C(=O)O)C5)cc4)nc3)CC2)CC1` [Compound 1416], the EC50 under setting [2] was below 800 nM.
Take `CCCCCCCOc1ccc(-c2cnc(-c3ccc(CC(NC(=O)c4ccc(C(C)(C)C)s4)C(=O)Nc4ccc(C(=O)O)cc4)cc3)nc2)cc1` (centres unmarked) [Compound 442]: the EC50 under setting [1] is 800 to 2500 nM.
On to `CCCCCCCOc1ccc(-c2cnc(-c3ccc(C[C@H](NC(=O)c4ccc(C(C)(C)C)s4)C(=O)N[C@@H](CC(=O)N[C@@H](C)C(=O)O)C(=O)O)cc3)nc2)cc1` [Compound 516], for which, under setting [1], the EC50 is below 800 nM.
As for `CCCCCCCOc1ccc(-c2cnc(-c3ccc(C[C@H](NC(=O)c4ccc(C(C)(C)C)s4)C(=O)N[C@@H](Cn4cncn4)C(=O)O)cc3)nc2)cc1` [Compound 639], the EC50 under setting [1] was below 800 nM.
